Data set [1] addresses T1, hGLP1R (Homo sapiens, UniProt P43220).
T1 construct: expressed in transfected cells; host or cells: HEK-293 CRE-luciferase reporter cells
The data set can be described thus: hGLP1R CreLuc assay in 0.5% and 100% plasma (HEK-293 CRE-luciferase reporter cells). It counts as cell-based. As to conditions: HEK-293 reporter cells. Background: A reporter such as luciferase makes a cellular process visible.

Data set [2] addresses T2, hGIPR (Homo sapiens, UniProt P48546).
T2 construct: expressed in transfected cells; host or cells: CHO CRE-luciferase reporter cells
T2 sequence (P48546 22-466): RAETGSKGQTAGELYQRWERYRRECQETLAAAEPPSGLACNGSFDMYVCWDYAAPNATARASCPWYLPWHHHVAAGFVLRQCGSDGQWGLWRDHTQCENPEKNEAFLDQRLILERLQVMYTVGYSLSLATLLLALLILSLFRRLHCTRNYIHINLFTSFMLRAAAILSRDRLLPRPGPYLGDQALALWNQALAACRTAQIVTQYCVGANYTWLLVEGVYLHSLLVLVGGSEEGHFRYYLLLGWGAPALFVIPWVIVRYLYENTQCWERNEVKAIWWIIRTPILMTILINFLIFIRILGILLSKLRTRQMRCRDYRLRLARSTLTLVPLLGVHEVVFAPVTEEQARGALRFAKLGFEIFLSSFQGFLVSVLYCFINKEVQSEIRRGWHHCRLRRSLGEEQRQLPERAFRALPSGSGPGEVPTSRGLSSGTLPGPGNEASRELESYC
The experiment in a line: hGIPR CreLuc assay in 0.5% and 100% plasma (CHO CRE-luciferase reporter cells). The class given is cell-based.

A short description of data set [3]: Solubility in 0.1 M phosphate buffer at pH 7. The class given is physicochemical. As to conditions: 0.1 M phosphate buffer at pH 7, 10 mg/mL final peptide concentration, shaking 2 hours at room temperature, peptides as TFA-salts; measured sample pH 6.5-7.0.
Where [4] appears, read: 0.5% human plasma, read-out: hGLP1R 0.5% hP.
The mark [5] stands for this setting: 100% human plasma, read-out: hGLP1R 100% hP.
Where [6] appears, read: 0.5% human plasma, read-out: hGIPR 0.5% hP.

The structures appear in SMILES notation. Where two headings read alike, the source gives them in different places.

T1 sequence (P43220 24-463): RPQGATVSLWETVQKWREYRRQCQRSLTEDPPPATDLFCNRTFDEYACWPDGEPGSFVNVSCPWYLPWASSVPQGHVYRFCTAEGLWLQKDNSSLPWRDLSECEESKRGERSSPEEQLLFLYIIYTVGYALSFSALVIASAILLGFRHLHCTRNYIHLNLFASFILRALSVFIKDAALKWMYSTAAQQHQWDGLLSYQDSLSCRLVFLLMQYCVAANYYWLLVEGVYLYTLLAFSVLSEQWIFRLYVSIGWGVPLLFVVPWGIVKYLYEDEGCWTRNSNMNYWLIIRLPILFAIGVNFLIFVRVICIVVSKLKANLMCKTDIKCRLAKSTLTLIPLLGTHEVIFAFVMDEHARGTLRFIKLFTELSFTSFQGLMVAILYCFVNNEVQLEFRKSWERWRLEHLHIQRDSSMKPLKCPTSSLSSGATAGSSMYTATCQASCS

As usually defined, the solubility is the concentration that dissolves in the medium under given conditions. `CC[C@H](C)[C@H](NC(=O)[C@H](CC(C)C)NC(=O)[C@H](Cc1c[nH]cn1)NC(=O)[C@H](CCCNC(=N)N)NC(=O)[C@@H](NC(=O)[C@H](Cc1ccccc1)NC(=O)[C@H](C)NC(=O)C(C)(C)NC(=O)[C@H](CCC(N)=O)NC(=O)[C@H](C)NC(=O)[C@H](CCC(=O)O)NC(=O)[C@H](CCC(=O)O)NC(=O)[C@H](CCC(=O)O)NC(=O)[C@H](CC(C)C)NC(=O)C(C)(C)NC(=O)[C@@H](NC(=O)[C@H](CO)NC(=O)[C@H](Cc1ccc(O)cc1)NC(=O)[C@H](CC(=O)O)NC(=O)[C@H](CO)NC(=O)[C@@H](NC(=O)[C@H](Cc1ccccc1)NC(=O)[C@@H](NC(=O)CNC(=O)[C@H](CCC(=O)O)NC(=O)C(C)(C)NC(=O)[C@@H](N)Cc1ccc(O)cc1)[C@@H](C)O)[C@@H](C)O)[C@@H](C)CC)C(C)C)C(=O)N[C@@H](CC(N)=O)C(=O)N[C@@H](CCCCNC(=O)CC[C@H](NC(=O)CC[C@H](NC(=O)CC[C@H](NC(=O)CC[C@H](NC(=O)CCCCCCCCCCCCCCCCC(=O)O)C(=O)O)C(=O)O)C(=O)O)C(=O)O)C(=O)NC(C)(C)C(=O)N[C@H](C(=O)N[C@@H](CCCNC(=N)N)C(=O)N[C@@H](CCC(N)=O)C(=O)N[C@@H](CCCNC(=N)N)C(=O)N[C@@H](Cc1ccc(O)cc1)C(N)=O)[C@@H](C)O` [Compound 25, Y-Aib-E-G-T-F-T-S-D-Y-S-I-Aib-L-E-E-E-A-Q-Aib-A-F-V-R-H-L-I-N-K(1,3)-Aib-T-R-Q-R-Y-NH2.C18DA-gGlu-gGlu-gGlu-gGlu(1,2)]: the EC50 in data set [1] (setting [4]) was determined as 700 pM; in data set [1] (setting [5]) it was 2000 pM; in data set [2] (setting [6]), 400 pM. The solubility at 2 h in data set [3] is 4800 µg/mL.

In the case of `CC[C@H](C)[C@H](NC(=O)[C@H](CC(C)C)NC(=O)[C@H](Cc1c[nH]cn1)NC(=O)[C@H](CCCNC(=N)N)NC(=O)[C@@H](NC(=O)[C@H](Cc1ccccc1)NC(=O)[C@H](CCC(=O)O)NC(=O)C(C)(C)NC(=O)[C@H](CCC(N)=O)NC(=O)[C@H](C)NC(=O)[C@H](CCC(N)=O)NC(=O)[C@H](CCCCN)NC(=O)[C@H](CCC(=O)O)NC(=O)[C@H](CC(C)C)NC(=O)C(C)(C)NC(=O)[C@@H](NC(=O)[C@H](CO)NC(=O)[C@H](Cc1ccc(O)cc1)NC(=O)[C@H](CC(=O)O)NC(=O)[C@H](CO)NC(=O)[C@@H](NC(=O)[C@H](Cc1ccccc1)NC(=O)[C@@H](NC(=O)CNC(=O)[C@H](CCC(=O)O)NC(=O)C(C)(C)NC(=O)[C@@H](N)Cc1ccc(O)cc1)[C@@H](C)O)[C@@H](C)O)[C@@H](C)CC)C(C)C)C(=O)N[C@@H](CC(N)=O)C(=O)N[C@@H](CCCCNC(=O)[C@@H](N)CCCCNC(=O)CC[C@H](NC(=O)CC[C@H](NC(=O)CC[C@H](NC(=O)CC[C@H](NC(=O)CC[C@H](NC(=O)CC[C@H](NC(=O)CC[C@H](NC(=O)CCCCCCCCCCCCCCCCC(=O)O)C(=O)O)C(=O)O)C(=O)O)C(=O)O)C(=O)O)C(=O)O)C(=O)O)C(=O)NC(C)(C)C(=O)N[C@H](C(=O)N[C@@H](CCCNC(=N)N)C(=O)N[C@@H](CCC(N)=O)C(=O)N[C@@H](CCCNC(=N)N)C(=O)N[C@@H](Cc1ccc(O)cc1)C(N)=O)[C@@H](C)O` [Compound 30, Y-Aib-E-G-T-F-T-S-D-Y-S-I-Aib-L-E-K-Q-A-Q-Aib-E-F-V-R-H-L-I-N-K(1,3)-Aib-T-R-Q-R-Y-NH2.C18DA-gGlu-gGlu-gGlu-gGlu-gGlu-gGlu-gGlu-eLys(1,2)], the results for the EC50 in data set [1] (setting [5]) and in data set [2] (setting [6]) were 900 pM and 300 pM, respectively. For the same compound, the solubility at 2 h in data set [3] stood at 4700 µg/mL.

On to `CC[C@H](C)[C@H](NC(=O)[C@H](CCCCN)NC(=O)[C@H](CC(=O)O)NC(=O)[C@H](CC(C)C)NC(=O)C(C)(C)NC(=O)[C@@H](NC(=O)[C@H](CO)NC(=O)[C@H](Cc1ccc(O)cc1)NC(=O)[C@H](CC(=O)O)NC(=O)[C@H](CO)NC(=O)[C@@H](NC(=O)[C@H](Cc1ccccc1)NC(=O)[C@@H](NC(=O)CNC(=O)[C@H](CCC(=O)O)NC(=O)C(C)(C)NC(=O)[C@@H](N)Cc1ccc(O)cc1)[C@@H](C)O)[C@@H](C)O)[C@@H](C)CC)C(=O)N[C@@H](C)C(=O)N[C@@H](CCC(N)=O)C(=O)NC(C)(C)C(=O)N[C@@H](C)C(=O)N[C@@H](Cc1ccccc1)C(=O)N[C@H](C(=O)N[C@@H](CCCNC(=N)N)C(=O)N[C@@H](Cc1c[nH]cn1)C(=O)N[C@@H](CC(C)C)C(=O)N[C@H](C(=O)N[C@@H](CC(N)=O)C(=O)N[C@@H](CCCCNC(=O)[C@@H](N)CCCCNC(=O)CC[C@H](NC(=O)CC[C@H](NC(=O)CC[C@H](NC(=O)CC[C@H](NC(=O)CC[C@H](NC(=O)CC[C@H](NC(=O)CCCCCCCCCCCCCCCCC(=O)O)C(=O)O)C(=O)O)C(=O)O)C(=O)O)C(=O)O)C(=O)O)C(=O)NC(C)(C)C(=O)N[C@H](C(=O)N[C@@H](CCCNC(=N)N)C(=O)N[C@@H](CCC(N)=O)C(=O)N[C@@H](CCCNC(=N)N)C(=O)N[C@@H](Cc1ccc(O)cc1)C(N)=O)[C@@H](C)O)[C@@H](C)CC)C(C)C` [Compound 33, Y-Aib-E-G-T-F-T-S-D-Y-S-I-Aib-L-D-K-I-A-Q-Aib-A-F-V-R-H-L-I-N-K(1,3)-Aib-T-R-Q-R-Y-NH2.C18DA-gGlu-gGlu-gGlu-gGlu-gGlu-gGlu-eLys(1,2)], for which the EC50 in data set [1] (setting [4]) is 100 pM; in data set [1] (setting [5]), 1000 pM; in data set [2] (setting [6]), 700 pM. In addition, in data set [3], the solubility at 2 h was 8900 µg/mL.

Regarding `CC[C@H](C)[C@H](NC(=O)[C@H](CC(C)C)NC(=O)[C@H](Cc1c[nH]cn1)NC(=O)[C@H](CCCNC(=N)N)NC(=O)[C@@H](NC(=O)[C@H](Cc1ccccc1)NC(=O)[C@H](C)NC(=O)C(C)(C)NC(=O)[C@H](CCC(N)=O)NC(=O)[C@H](C)NC(=O)[C@H](CCC(N)=O)NC(=O)[C@H](CCCCN)NC(=O)[C@H](CCC(=O)O)NC(=O)[C@H](CC(C)C)NC(=O)C(C)(C)NC(=O)[C@@H](NC(=O)[C@H](CO)NC(=O)[C@H](Cc1ccc(O)cc1)NC(=O)[C@H](CC(=O)O)NC(=O)[C@H](CO)NC(=O)[C@@H](NC(=O)[C@H](Cc1ccccc1)NC(=O)[C@@H](NC(=O)CNC(=O)[C@H](CCC(=O)O)NC(=O)C(C)(C)NC(=O)[C@@H](N)Cc1ccc(O)cc1)[C@@H](C)O)[C@@H](C)O)[C@@H](C)CC)C(C)C)C(=O)N[C@@H](CC(N)=O)C(=O)N[C@@H](CCCCNC(=O)CC[C@H](NC(=O)CC[C@H](NC(=O)[C@@H](N)CCCCNC(=O)CC[C@H](NC(=O)CC[C@H](NC(=O)CC[C@H](NC(=O)CC[C@H](NC(=O)CCCCCCCCCCCCCCCCC(=O)O)C(=O)O)C(=O)O)C(=O)O)C(=O)O)C(=O)O)C(=O)O)C(=O)NC(C)(C)C(=O)N[C@H](C(=O)N[C@@H](CCCNC(=N)N)C(=O)N[C@@H](CCC(N)=O)C(=O)N[C@@H](CCCNC(=N)N)C(=O)N[C@@H](Cc1ccc(O)cc1)C(N)=O)[C@@H](C)O` [Compound 34, Y-Aib-E-G-T-F-T-S-D-Y-S-I-Aib-L-E-K-Q-A-Q-Aib-A-F-V-R-H-L-I-N-K(1,3)-Aib-T-R-Q-R-Y-NH2.C18DA-gGlu-gGlu-gGlu-gGlu-eLys-gGlu-gGlu(1,2)], the EC50 in data set [1] (setting [4]) came out at 300 pM; in data set [2] (setting [6]), 200 pM. Also, the solubility at 2 h in data set [3] worked out at 10600 µg/mL.

For `CC[C@H](C)[C@H](NC(=O)[C@H](CC(C)C)NC(=O)[C@H](Cc1c[nH]cn1)NC(=O)[C@H](CCCNC(=N)N)NC(=O)[C@@H](NC(=O)[C@H](Cc1ccccc1)NC(=O)[C@H](C)NC(=O)C(C)(C)NC(=O)[C@H](CCC(N)=O)NC(=O)[C@H](C)NC(=O)[C@H](CCC(N)=O)NC(=O)[C@H](CCCCN)NC(=O)[C@H](CCC(=O)O)NC(=O)[C@H](CC(C)C)NC(=O)C(C)(C)NC(=O)[C@@H](NC(=O)[C@H](CO)NC(=O)[C@H](Cc1ccc(O)cc1)NC(=O)[C@H](CC(=O)O)NC(=O)[C@H](CO)NC(=O)[C@@H](NC(=O)[C@H](Cc1ccccc1)NC(=O)[C@@H](NC(=O)CNC(=O)[C@H](CCC(=O)O)NC(=O)C(C)(C)NC(=O)[C@@H](N)Cc1ccc(O)cc1)[C@@H](C)O)[C@@H](C)O)[C@@H](C)CC)C(C)C)C(=O)N[C@@H](CC(N)=O)C(=O)N[C@@H](CCCCNC(=O)CC[C@H](NC(=O)CC[C@H](NC(=O)CC[C@H](NC(=O)CC[C@H](NC(=O)CC[C@H](NC(=O)CCCCCCCCCCCCCCCCC(=O)O)C(=O)O)C(=O)O)C(=O)O)C(=O)O)C(=O)O)C(=O)N[C@H](C(=O)N[C@H](C(=O)N[C@@H](CCCNC(=N)N)C(=O)N[C@@H](CCC(N)=O)C(=O)N[C@@H](CCCNC(=N)N)C(=O)N[C@@H](Cc1ccc(O)cc1)C(N)=O)[C@@H](C)O)[C@@H](C)CC` [Compound 41, Y-Aib-E-G-T-F-T-S-D-Y-S-I-Aib-L-E-K-Q-A-Q-Aib-A-F-V-R-H-L-I-N-K(1,3)-I-T-R-Q-R-Y-NH2.C18DA-gGlu-gGlu-gGlu-gGlu-gGlu(1,2)], the EC50 in data set [1] (setting [4]) worked out at 900 pM; in data set [1] (setting [5]), 5000 pM; in data set [2] (setting [6]), 300 pM; in data set [2] (100% human plasma, read-out: hGIPR 100% hP), 7100 pM. For the same compound, the solubility at 2 h in data set [3] amounted to 4000 µg/mL.

The record behind these values is patent US20250382344A1, “Soluble GLP1/GIP/NPY2 Receptor Triple Agonists” (Boehringer Ingelheim International GmH, priority 2024, published 2025).
